The values below come from patent publication US20260001928A1 (CORTERIA PHARMACEUTICALS, priority 2022, published 2026).

Data set [1] concerns the target T1, human CRF2a receptor (Homo sapiens, UniProt Q13324).
T1 construct: expressed in transfected cells; host or cells: TeloHEAC cells
T1 sequence (Q13324 1-411): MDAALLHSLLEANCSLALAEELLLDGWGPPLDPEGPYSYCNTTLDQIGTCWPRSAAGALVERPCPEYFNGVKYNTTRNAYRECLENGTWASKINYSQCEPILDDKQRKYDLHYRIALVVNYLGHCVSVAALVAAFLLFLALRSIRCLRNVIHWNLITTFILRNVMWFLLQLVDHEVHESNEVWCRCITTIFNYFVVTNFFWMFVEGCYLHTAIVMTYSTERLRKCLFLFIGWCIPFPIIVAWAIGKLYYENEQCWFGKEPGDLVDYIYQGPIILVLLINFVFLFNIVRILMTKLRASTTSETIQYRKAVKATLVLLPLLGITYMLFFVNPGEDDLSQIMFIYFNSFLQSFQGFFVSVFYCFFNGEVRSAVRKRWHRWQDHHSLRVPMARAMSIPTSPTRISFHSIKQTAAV
The data set can be described thus: Activity at human CRF2a receptor, cAMP functional assay in TeloHEAC cells. In kind it is cell-based. The note with it: TeloHEAC cells stably expressing human CRF2a receptor, relative to urocortin 2 (100 nM = 100%). Summed up:
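cAMP accumulation was measured by HTRF 665/620 nm ratio after 30 min at 37° C compound exposure (16 twofold dilutions) of CRF2a-expressing TeloHEAC cells, 10000/well, in HEPES-buffered HBSS plus IBMX. Activity was normalised to urocortin 2 at 100 nM (100%), and EC50 was the concentration giving half-maximal activation.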

For data set [2], the target named is T2, CFR1R receptor (Homo sapiens, UniProt P34998).
T2 construct: host or cells: CHO-K1 (clone 2)
T2 sequence (P34998 24-415): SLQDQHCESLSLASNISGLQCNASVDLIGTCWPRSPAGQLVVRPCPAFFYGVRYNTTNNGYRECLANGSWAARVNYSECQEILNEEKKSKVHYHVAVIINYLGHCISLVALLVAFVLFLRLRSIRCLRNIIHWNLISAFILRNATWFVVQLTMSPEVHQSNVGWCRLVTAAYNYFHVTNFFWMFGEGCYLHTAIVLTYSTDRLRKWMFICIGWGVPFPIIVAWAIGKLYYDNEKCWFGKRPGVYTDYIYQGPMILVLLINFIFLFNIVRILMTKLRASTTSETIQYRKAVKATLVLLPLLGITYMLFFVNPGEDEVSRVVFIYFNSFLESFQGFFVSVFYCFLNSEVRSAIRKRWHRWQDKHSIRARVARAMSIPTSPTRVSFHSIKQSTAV
The data set can be described thus: Activity at anti-target CFR1R receptor, cAMP assay in CRF1R-overexpression CHO-K1 cells. The format is cell-based. The note with it: 100% = Sauvagine at 100 nM; for EC50: cAMP. In outline:
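Run as for the TeloHAEC line, except the full-activation control well received Sauvagine (100 nM) and final density was 4000 cells/well. Cells from clone 2 came from frozen aliquots of near-confluent cultures.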
(In general: Changes in cAMP serve as a functional read-out for many G protein-coupled receptors.)

Data set [3] in a line: Chemical stability in buffer (pH 7.4 / pH 4.5), % purity loss. The format is physicochemical. The conditions noted are these: 40° C. vs 5° C., 14 or 28 days; for Buffer stability pH 4.5 % purity loss: 100 mM acetate buffer pH 4.5; for Buffer stability pH 7.4 % purity loss: 100 mM phosphate buffer pH 7.4. How it is done:
Solubility and chemical stability were studied in 100 mM phosphate buffer (pH 7.4) and 100 mM acetate buffer (pH 4.5). Test compound powders were dissolved in both buffers at a target concentration of 10 mg/mL and incubated for 1 hour at room temperature. After centrifugation at 2500 rcf for 15 minutes, 10 μL of supernatant was diluted with 190 μL of the incubation buffer and analyzed by LC-UV (Acquity UPLC-DAD, Waters). Solubility was calculated by comparing the peak area of the test compound in the buffer sample with the peak area of the same compound dissolved at 0.5 mg/mL in water:acetonitrile 1:1, 0.1% formic acid.
From the centrifuged supernatant, two additional 80 μL aliquots were collected and diluted with 160 μL of incubation buffer. One aliquot was stored at 5° C., while the other was stored at 40° C. After 14 or 28 days, the samples were analyzed by LC-UV. Chemical stability was calculated as % loss using the following equations: […]

*1 amine or outer side, *2 acyl side, *3 side chain or, on linkers, in order; H or OH if unused. Where a SMILES comes first, the peptide text is derived from it. Side-chain parts run from the residue outwards. [ ]: non-standard residue; d: D form. The star is where a group is joined. C20 diacid = O=C(O)CCCCCCCCCCCCCCCCCCC(=O)*; C18 diacid = O=C(O)CCCCCCCCCCCCCCCCC(=O)*; C16 diacid = O=C(O)CCCCCCCCCCCCCCC(=O)*; γGlu = O=C(O)[C@H](CCC(=O)[*:2])N[*:1]; NMeI = CC[C@H](C)[C@H](NC)C(=O)O; Pentanoyl = CCCCC(=O)*; AEEA = NCCOCCOCC(=O)O; Aib = CC(C)(N)C(=O)O A value given as a limit tells only on which side of the number the result lay.

With `CCCCC(=O)N[C@H](C(=O)N[C@@H](CC(C)C)C(=O)N[C@@H](CO)C(=O)N[C@@H](CC(C)C)C(=O)N[C@@H](CC(=O)O)C(=O)N[C@H](C(=O)N1CCC[C@H]1C(=O)N[C@H](C(=O)N[C@@H](CCCCN)C(=O)N[C@@H](CC(C)C)C(=O)N[C@@H](CCCCNC(=O)COCCOCCNC(=O)COCCOCCNC(=O)CC[C@H](NC(=O)CCCCCCCCCCCCCCCCC(=O)O)C(=O)O)C(=O)N[C@@H](CCCCN)C(=O)N[C@H](C(=O)N[C@@H](CC(C)C)C(=O)N[C@@H](CC(C)C)C(=O)N[C@@H](CCC(=O)O)C(=O)N[C@@H](CCC(N)=O)C(=O)N[C@@H](CCC(=O)O)C(=O)N[C@@H](CCCCN)C(=O)N[C@@H](CCC(N)=O)C(=O)N[C@@H](CCCCN)C(=O)N[C@@H](CCCCN)C(=O)N[C@@H](CCC(N)=O)C(=O)N[C@@H](CCCNC(=N)N)C(=O)N[C@@H](CCC(=O)O)C(=O)N[C@@H](CCC(N)=O)C(=O)N[C@@H](C)C(=O)N[C@@H](CCC(=O)O)C(=O)N[C@H](C(=O)N[C@@H](CC(N)=O)C(=O)N[C@@H](CCCCN)C(=O)N[C@@H](CCC(N)=O)C(=O)N[C@H](C(=O)N[C@@H](CC(C)C)C(=O)N[C@@H](C)C(=O)N[C@@H](CCC(N)=O)C(=O)N[C@H](C(N)=O)C(C)C)[C@@H](C)CC)[C@@H](C)O)[C@@H](C)CC)[C@@H](C)CC)C(C)C)C(C)C` [compound 96] (Pentanoyl-VLSLDVPIKLK([AEEA-AEEA-γGlu-C18 diacid])KILLEQEKQKKQREQAETNKQILAQV-NH2), the EC50 is 0.49 nM in data set [1] and greater than 250 nM in data set [2]. In addition, the “Emax (% I)” value in data set [2] was 4 % I. The “Buffer stability pH 4.5 % purity loss” value in data set [3] is listed as “nd/0 ^ %”.

`CC[C@H](C)[C@H](NC(=O)[C@H](CCC(N)=O)NC(=O)[C@H](CCCCN)NC(=O)[C@H](CC(N)=O)NC(=O)[C@@H](NC(=O)[C@H](CCC(=O)O)NC(=O)[C@H](C)NC(=O)[C@H](CCC(N)=O)NC(=O)[C@H](CCC(=O)O)NC(=O)[C@H](CCCNC(=N)N)NC(=O)[C@H](CCC(N)=O)NC(=O)[C@H](CCCCN)NC(=O)[C@H](CCCCN)NC(=O)[C@H](CCC(N)=O)NC(=O)[C@H](CCCCN)NC(=O)[C@H](CCC(=O)O)NC(=O)[C@H](CCC(N)=O)NC(=O)[C@H](CCC(=O)O)NC(=O)[C@H](CC(C)C)NC(=O)[C@H](CC(C)C)NC(=O)[C@@H](NC(=O)[C@H](CCCCN)NC(=O)[C@H](CCCCNC(=O)COCCOCCNC(=O)COCCOCCNC(=O)CC[C@H](NC(=O)CCCCCCCCCCCCCCCCC(=O)O)C(=O)O)NC(=O)[C@H](CC(C)C)NC(=O)[C@H](CCCCN)NC(=O)[C@@H](NC(=O)[C@@H]1CCCN1C(=O)[C@H](NC(=O)[C@H](CC(=O)O)NC(=O)[C@H](CC(C)C)NC(=O)[C@H](CO)NC(=O)[C@H](CC(C)C)NC(=O)[C@@H](NC(C)=O)C(C)C)C(C)C)[C@@H](C)CC)[C@@H](C)CC)[C@@H](C)O)C(=O)N[C@@H](CC(C)C)C(=O)N[C@@H](C)C(=O)N[C@@H](CCC(N)=O)C(=O)N[C@H](C(N)=O)C(C)C` [compound 92] (Ac-VLSLD[dV]PIKLK([AEEA-AEEA-γGlu-C18 diacid])KILLEQEKQKKQREQAETNKQILAQV-NH2) displayed an EC50 in data set [1] of 2.3 nM. Moreover, in data set [2], the “Emax (% I)” value is reported as 5 % I and the EC50 was greater than 250 nM. Besides, in data set [3], the “Buffer stability pH 4.5 % purity loss” value stood at 0% and the “Buffer stability pH 7.4 % purity loss” value is 16.8%.

In data set [1], `CC[C@H](C)[C@H](NC)C(=O)N[C@H](C(=O)N[C@@H](CC(C)C)C(=O)N[C@@H](CO)C(=O)N[C@@H](CC(C)C)C(=O)N[C@@H](CC(=O)O)C(=O)N[C@@H](C(=O)N1CCC[C@H]1C(=O)N[C@H](C(=O)N[C@@H](CCCCN)C(=O)N[C@@H](CC(C)C)C(=O)N[C@@H](CCCCNC(=O)COCCOCCNC(=O)COCCOCCNC(=O)CC[C@H](NC(=O)CCCCCCCCCCCCCCCCCCC(=O)O)C(=O)O)C(=O)N[C@@H](CCCCN)C(=O)N[C@H](C(=O)N[C@@H](CC(C)C)C(=O)N[C@@H](CC(C)C)C(=O)N[C@@H](CCC(=O)O)C(=O)N[C@@H](CCC(N)=O)C(=O)N[C@@H](CCC(=O)O)C(=O)N[C@@H](CCCCN)C(=O)N[C@@H](CCC(N)=O)C(=O)N[C@@H](CCCCN)C(=O)NC(C)(C)C(=O)N[C@@H](CCC(N)=O)C(=O)N[C@@H](CCCNC(=N)N)C(=O)N[C@@H](CCC(=O)O)C(=O)N[C@@H](CCC(N)=O)C(=O)N[C@@H](C)C(=O)N[C@@H](CCC(=O)O)C(=O)N[C@H](C(=O)N[C@@H](CC(N)=O)C(=O)NC(C)(C)C(=O)N[C@@H](CCC(N)=O)C(=O)N[C@H](C(=O)N[C@@H](CC(C)C)C(=O)N[C@@H](C)C(=O)N[C@@H](CCC(N)=O)C(=O)N[C@H](C(N)=O)C(C)C)[C@@H](C)CC)[C@@H](C)O)[C@@H](C)CC)[C@@H](C)CC)C(C)C)C(C)C` [compound 239] (H-[NMeI]VLSLD[dV]PIKLK([AEEA-AEEA-γGlu-C20 diacid])KILLEQEKQK[Aib]QREQAETN[Aib]QILAQV-NH2) came in with an EC50 of 0.11 nM. Besides, in data set [2], the “Emax (% I)” value came to 0 % I and the half-maximal effective concentration (EC50) is greater than 250 nM. In data set [3], the “Buffer stability pH 4.5 % purity loss” value is listed as 2.6% and the “Buffer stability pH 7.4 % purity loss” value is 0.0%.

As for `CC[C@H](C)[C@H](NC(=O)[C@H](CCC(N)=O)NC(=O)[C@H](CCCCN)NC(=O)[C@H](CC(N)=O)NC(=O)[C@@H](NC(=O)[C@H](CCC(=O)O)NC(=O)[C@H](C)NC(=O)[C@H](CCC(N)=O)NC(=O)[C@H](CCC(=O)O)NC(=O)[C@H](CCCNC(=N)N)NC(=O)[C@H](CCC(N)=O)NC(=O)[C@H](CCCCN)NC(=O)[C@H](CCCCN)NC(=O)[C@H](CCC(N)=O)NC(=O)[C@H](CCCCN)NC(=O)[C@H](CCC(=O)O)NC(=O)[C@H](CCC(N)=O)NC(=O)[C@H](CCC(=O)O)NC(=O)[C@H](CC(C)C)NC(=O)[C@H](CC(C)C)NC(=O)[C@@H](NC(=O)[C@H](CCCCN)NC(=O)[C@H](CCCCNC(=O)CC[C@H](NC(=O)CCCCCCCCCCCCCCC(=O)O)C(=O)O)NC(=O)[C@H](CC(C)C)NC(=O)[C@H](CCCCN)NC(=O)[C@@H](NC(=O)[C@@H]1CCCN1C(=O)[C@H](NC(=O)[C@H](CC(=O)O)NC(=O)[C@H](CC(C)C)NC(=O)[C@H](CO)NC(=O)[C@H](CC(C)C)NC(=O)[C@@H](N)C(C)C)C(C)C)[C@@H](C)CC)[C@@H](C)CC)[C@@H](C)O)C(=O)N[C@@H](CC(C)C)C(=O)N[C@@H](C)C(=O)N[C@@H](CCC(N)=O)C(=O)N[C@H](C(N)=O)C(C)C` [compound 34] (H-VLSLD[dV]PIKLK([γGlu-C16 diacid])KILLEQEKQKKQREQAETNKQILAQV-NH2), in data set [1], a half-maximal effect (EC50) was put at 1.61 nM. In data set [2], the “Emax (% I)” value came to 0 % I and the EC50 is greater than 250 nM. For the same compound, in data set [3], the “Buffer stability pH 4.5 % purity loss” value was determined as 0% and the “Buffer stability pH 7.4 % purity loss” value is 4.5%.

Broadly, the EC50 is the midpoint of the concentration-response curve.
